# Assay results taken from patent US11173151B2, “Substituted triazole derivatives and uses thereof” (BAYER AKTIENGESELLSCHAFT, priority 2017, dated 2021).
# What was measured:
# human V1a receptor = target: T1, human V1a receptor (Homo sapiens, UniProt P37288); assay: Cellular in vitro assay for determining vasopressin receptor activity, V1a receptor cell line (CHO, aequorin luminescence); format: cell-based; conditions: for IC50: CHO cell line transfected with human V1a receptor, [Arg]-vasopressin at EC50 concentration, read-out: IC50 hV1a; for ratio IC50 hV2/hV1a: selectivity ratio IC50 hV2 / IC50 hV1a
# T1 construct: expressed in transfected cells; host or cells: CHO K1 (ATCC), also stably transfected with a modified aequorin
# Procedure, shortened: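 IC50 from inhibition of [Arg]-vasopressin (EC50 concentration)-evoked aequorin luminescence in CHO K1 cells, with 10-min compound pretreatment.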
# human V2 receptor = target: T2, human V2 receptor (Homo sapiens, UniProt P30518); assay: Cellular in vitro assay for determining vasopressin receptor activity, V2 receptor cell line (CHO, CRE-luciferase); format: cell-based; conditions: CHO cell line transfected with human V2 receptor; [Arg8]-vasopressin at EC50 concentration, 3 hours; read-out: IC50 hV2
# T2 construct: expressed in transfected cells; host or cells: CHO K1 (ATCC) expressing firefly luciferase under a CRE-responsive promoter
# T2 sequence (P30518 whole entry): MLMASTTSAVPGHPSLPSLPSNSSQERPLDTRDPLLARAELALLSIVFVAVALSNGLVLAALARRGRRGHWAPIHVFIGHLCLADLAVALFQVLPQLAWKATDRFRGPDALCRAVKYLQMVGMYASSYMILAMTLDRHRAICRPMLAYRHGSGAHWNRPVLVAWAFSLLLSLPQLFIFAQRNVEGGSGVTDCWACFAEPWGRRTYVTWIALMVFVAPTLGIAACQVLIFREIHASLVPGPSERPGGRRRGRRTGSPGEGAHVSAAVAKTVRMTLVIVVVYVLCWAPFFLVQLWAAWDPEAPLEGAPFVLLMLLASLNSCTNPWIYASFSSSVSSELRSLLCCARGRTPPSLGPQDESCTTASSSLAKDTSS
# T1 sequence (P37288 whole entry): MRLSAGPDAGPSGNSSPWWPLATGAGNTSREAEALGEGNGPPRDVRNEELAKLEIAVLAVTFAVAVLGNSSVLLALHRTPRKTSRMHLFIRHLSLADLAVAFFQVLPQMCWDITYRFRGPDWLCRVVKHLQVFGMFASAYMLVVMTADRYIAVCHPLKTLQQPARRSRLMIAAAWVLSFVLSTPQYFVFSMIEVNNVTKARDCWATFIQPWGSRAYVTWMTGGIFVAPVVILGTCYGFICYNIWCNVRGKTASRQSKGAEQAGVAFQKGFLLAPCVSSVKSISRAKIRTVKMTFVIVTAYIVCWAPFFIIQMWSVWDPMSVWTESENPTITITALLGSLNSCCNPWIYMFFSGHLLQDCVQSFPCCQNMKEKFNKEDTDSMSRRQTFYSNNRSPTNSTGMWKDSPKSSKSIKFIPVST
SMILES,IC50 (human V1a receptor),ratio IC50 hV2/hV1a (human V1a receptor),IC50 (human V2 receptor)
"O=C(NC1CS(=O)(=O)C1)c1ccccc1-n1cnc(Cn2nc(-c3ccc(Cl)cc3)n(C[C@H](O)C(F)(F)F)c2=O)n1 [Example 176, 2-[3-({3-(4-Chlorophenyl)-5-oxo-4-[(2S)-3,3,3-trifluoro-2-hydroxypropyl]-4,5-dihydro-1H-1,2,4-triazol-1-yl}methyl)-1H-1,2,4-triazol-1-yl]-N-(1,1-dioxidothietan-3-yl)benzamide]",15 nM,83.3,1250 nM
"O=C1CC[C@@H](CNC(=O)c2ccccc2-n2cnc(Cn3nc(-c4ccc(Cl)cc4)n(C[C@H](O)C(F)(F)F)c3=O)n2)N1 [Example 178, 2-[3-({3-(4-Chlorophenyl)-5-oxo-4-[(2S)-3,3,3-trifluoro-2-hydroxypropyl]-4,5-dihydro-1H-1,2,4-triazol-1-yl}methyl)-1H-1,2,4-triazol-1-yl]-N-{[(2S)-5-oxopyrrolidin-2-yl]methyl}benzamide]",18.5 nM,97.3,1800 nM
"O=C(NCCC(F)(F)F)c1ccccc1-n1cnc(Cn2nc(-c3ccc(Cl)cc3)n(C[C@H](O)C(F)(F)F)c2=O)n1 [Example 182, 2-[3-({3-(4-Chlorophenyl)-5-oxo-4-[(2S)-3,3,3-trifluoro-2-hydroxypropyl]-4,5-dihydro-1H-1,2,4-triazol-1-yl}methyl)-1H-1,2,4-triazol-1-yl]-N-(3,3,3-trifluoropropyl)benzamide]",24 nM,85.4,2050 nM

# Continued by falling IC50 (human V1a receptor), values first:
IC50 (human V1a receptor),ratio IC50 hV2/hV1a (human V1a receptor),IC50 (human V2 receptor),SMILES
195 nM,–,18700 nM,"CC1(C)CN(C(=O)c2ccccc2-n2cnc(Cn3nc(-c4ccc(Cl)cc4)n(C[C@H](O)C(F)(F)F)c3=O)n2)CCN1 [Example 181, 5-(4-Chlorophenyl)-2-[(1-{2-[(3,3-dimethylpiperazin-1-yl)carbonyl]phenyl}-1H-1,2,4-triazol-3-yl)methyl]-4-[(2S)-3,3,3-trifluoro-2-hydroxypropyl]-2,4-dihydro-3H-1,2,4-triazol-3-one]"
68 nM,43.4,2950 nM,"CC(=O)N[C@H]1CCN(C(=O)c2ccccc2-n2cnc(Cn3nc(-c4ccc(Cl)cc4)n(C[C@H](O)C(F)(F)F)c3=O)n2)C1 [Example 180, N-[(3S)-1-{2-[3-({3-(4-Chlorophenyl)-5-oxo-4-[(2S)-3,3,3-trifluoro-2-hydroxypropyl]-4,5-dihydro-1H-1,2,4-triazol-1-yl}methyl)-1H-1,2,4-triazol-1-yl]benzoyl}pyrrolidin-3-yl]acetamide]"
10.3 nM,150.7,1540 nM,"O=C(c1ccccc1-n1cnc(Cn2nc(-c3ccc(Cl)cc3)n(C[C@H](O)C(F)(F)F)c2=O)n1)N1CCC(F)(F)CC1 [Example 175, 5-(4-Chlorophenyl)-2-[(1-{2-[(4,4-difluoropiperidin-1-yl)carbonyl]phenyl}-1H-1,2,4-triazol-3-yl)methyl]-4-[(2S)-3,3,3-trifluoro-2-hydroxypropyl]-2,4-dihydro-3H-1,2,4-triazol-3-one]"
9.9 nM,69.7,690 nM,"O=C(NCCN1CCCC1=O)c1ccccc1-n1cnc(Cn2nc(-c3ccc(Cl)cc3)n(C[C@H](O)C(F)(F)F)c2=O)n1 [Example 177, 2-[3-({3-(4-Chlorophenyl)-5-oxo-4-[(2S)-3,3,3-trifluoro-2-hydroxypropyl]-4,5-dihydro-1H-1,2,4-triazol-1-yl}methyl)-1H-1,2,4-triazol-1-yl]-N-[2-(2-oxopyrrolidin-1-yl)ethyl]benzamide]"
6.1 nM,278.7,1700 nM,"O=C1CC[C@H](CNC(=O)c2ccccc2-n2cnc(Cn3nc(-c4ccc(Cl)cc4)n(C[C@H](O)C(F)(F)F)c3=O)n2)N1 [Example 179, 2-[3-({3-(4-Chlorophenyl)-5-oxo-4-[(2S)-3,3,3-trifluoro-2-hydroxypropyl]-4,5-dihydro-1H-1,2,4-triazol-1-yl}methyl)-1H-1,2,4-triazol-1-yl]-N-{[(2R)-5-oxopyrrolidin-2-yl]methyl}benzamide]"
